Assay results from ChEMBL document CHEMBL1155965, “Addressing the malaria drug resistance challenge using flow cytometry to discover new antimalarials” (Bioorg Med Chem Lett, 2009).
One block for each compound: values may come before it.

Experiments:
Plasmodium falciparum [1] = assay: Antimalarial activity against Plasmodium falciparum W2mef schizont form by hoechst 33342-thiazole orange stain based flow cytometry assay; format: functional, organism-based
Plasmodium falciparum [2] = assay: Antimalarial activity against Plasmodium falciparum W2mef trophozoite form by hoechst 33342-thiazole orange stain based flow cytometry assay; format: functional, organism-based
Plasmodium falciparum [3] = assay: Antimalarial activity against Plasmodium falciparum W2mef ring form by hoechst 33342-thiazole orange stain based flow cytometry assay; format: functional, organism-based
Plasmodium falciparum [4] = assay: Antimalarial activity against Plasmodium falciparum W2mef at 10 uM after 48 hrs by hoechst 33342-thiazole orange stain based flow cytometry assay; format: functional
Plasmodium falciparum [5] = assay: Antimalarial activity against Plasmodium falciparum W2mef assessed as DNA positive erythrocytes by hoechst 33342-thiazole orange stain based flow cytometry assay; format: functional, organism-based
Plasmodium falciparum [6] = assay: microbe, parasite or virus in culture; conditions: W2mef
Description: Antimalarial activity against Plasmodium falciparum W2mef by hypoxanthine uptake assay

[7] = Cytotoxicity against human erythrocytes assessed as intact cells by propidium iodide stain based flow cytometry; format: cell-based, Erythrocyte; conditions: read-out: Activity
[8] = Cytotoxicity against human erythrocytes assessed as change in cell shape by flow cytometry; format: cell-based; conditions: erythrocyte
[9] = Cytotoxicity against human erythrocytes assessed as change in internal complexity by flow cytometry; format: cell-based; conditions: erythrocyte

IC50 (Plasmodium falciparum [1]): 317 nM | IC50 (Plasmodium falciparum [2]): 620 nM | IC50 (Plasmodium falciparum [3]): 228 nM | IC50 (Plasmodium falciparum [5]): 320 nM
Compound: Cc1[nH]c(/C=C2\C(=O)Nc3ccc(S(=O)(=O)N(C)c4cccc(Cl)c4)cc32)c(C)c1C(=O)N1CCN(C)CC1
inhibition at 10 µM (Plasmodium falciparum [4]): 85.1%

Compound: O=C(NCCc1c[nH]cn1)/C(Cc1ccccc1)=N\O
inhibition at 10 µM (Plasmodium falciparum [4]): 2.61%

Compound: Fc1cccc(-c2nc3ccncc3[nH]2)c1F
inhibition at 10 µM (Plasmodium falciparum [4]): 14.4%

Compound: COc1cc2ncn(-c3sc(C(N)=O)cc3OCc3ccccc3C(F)(F)F)c2cc1OC
inhibition at 10 µM (Plasmodium falciparum [4]): 24.6%

Compound: COC(=O)c1cn2nc[nH]c(=O)c2c1C
inhibition at 10 µM (Plasmodium falciparum [4]): 9.62%

Compound: N#Cc1ccc(Nc2nc(O)cc(O)n2)cc1
inhibition at 10 µM (Plasmodium falciparum [4]): 1.46%

Compound: CCN(CC)C(=O)[C@@]1(c2ccccc2)C[C@H]1CNC(=O)O[C@@H]1O[C@H](C(=O)OC)[C@@H](O)[C@H](O)[C@H]1O
inhibition at 10 µM (Plasmodium falciparum [4]): 3.16%

Compound: Oc1c(F)cc(CN2CCc3ccccc3C2)cc1F
inhibition at 10 µM (Plasmodium falciparum [4]): 8.47%

Compound: CC(C)C1=NN=CC1C1CC2CCC(C1)N2 (centres undefined)
inhibition at 10 µM (Plasmodium falciparum [4]): 0%

Compound: Cn1cc(-c2[nH]c3cc(N)cc4c3c2C=NNC4=O)cn1
inhibition at 10 µM (Plasmodium falciparum [4]): 9.17%

Compound: Cn1cnc(CSCc2ccccc2)c1
inhibition at 10 µM (Plasmodium falciparum [4]): 42.1%

Compound: Cn1cncc1CSCc1ccc(I)cc1
inhibition at 10 µM (Plasmodium falciparum [4]): 41.9%

Compound: Cc1cc(O)cc(C)c1CN1CCc2ccccc2C1
inhibition at 10 µM (Plasmodium falciparum [4]): 6.76%

Compound: Ic1ccc(CSCc2c[nH]cn2)cc1
inhibition at 10 µM (Plasmodium falciparum [4]): 37.1%

Compound: Cc1ccc(-c2nc3c(Br)cc4c(c3[nH]2)C(=O)NC(=O)C4(C)C)cc1[N+](=O)[O-]
inhibition at 10 µM (Plasmodium falciparum [4]): 11.2%

IC50 (Plasmodium falciparum [1]): 2000 nM | IC50 (Plasmodium falciparum [2]): 16600 nM | IC50 (Plasmodium falciparum [3]): 1080 nM | IC50 (Plasmodium falciparum [5]): 3770 nM
Compound: Cn1cnc(CSCc2ccc(I)cc2)c1
inhibition at 10 µM (Plasmodium falciparum [4]): 74.9%

Compound: O=S(=O)(c1ccccc1)C(CCCn1ccnc1)c1ccc(I)cc1 (centres undefined)
inhibition at 10 µM (Plasmodium falciparum [4]): 3.46%

Compound: O=C(c1ccc(Cl)cc1)c1ccc2[nH]c(=O)cc(-c3cccc(Cl)c3)c2c1
inhibition at 10 µM (Plasmodium falciparum [4]): 36.1%

Compound: Cn1cnc(C[S+]([O-])Cc2ccc(I)cc2)c1 (centres undefined)
inhibition at 10 µM (Plasmodium falciparum [4]): 6.31%

Compound: O=C(Cc1ccc(O)cc1)N1CCc2ccccc2C1
inhibition at 10 µM (Plasmodium falciparum [4]): 1.1%

Compound: Oc1ccc(C(O)C2CCc3ccccc3C2)cc1 (centres undefined)
inhibition at 10 µM (Plasmodium falciparum [4]): 14.6%

Compound: Cc1cc(I)ccc1Nc1c(C(=O)N2CCNCC2)cc2nc[nH]c2c1F
inhibition at 10 µM (Plasmodium falciparum [4]): 0.25%

Compound: Clc1ccc(C2(c3ccc4noc(-c5cccc(Cl)c5)c4c3)OCCO2)cc1
inhibition at 10 µM (Plasmodium falciparum [4]): 54.5%

Compound: C[C@@H]1CC[C@H]2[C@@H](C)C(=O)O[C@@H]3O[C@@]4(C)CC[C@@H]1[C@]32OO4 [ARTEMISININ]
IC50 (Plasmodium falciparum [1]): 8 nM | IC50 (Plasmodium falciparum [6]): 12 nM | IC50 (Plasmodium falciparum [2]): 7 nM | IC50 (Plasmodium falciparum [3]): 20 nM | IC50 (Plasmodium falciparum [5]): 11 nM

IC50 (Plasmodium falciparum [1]): 716 nM | IC50 (Plasmodium falciparum [2]): 726 nM | IC50 (Plasmodium falciparum [3]): 409 nM | IC50 (Plasmodium falciparum [5]): 506 nM
Compound: Cc1cc(C#N)cc(C)c1Oc1nc(Nc2ccc(C#N)cc2)nc(N)c1Br [ETRAVIRINE]
viability [7]: > 98.5% | inhibition at 10 µM (Plasmodium falciparum [4]): 91.7% | Activity [8]: Non-toxic | Activity [9]: Non-toxic

Compound: OC(c1cc(C(F)(F)F)nc2c(C(F)(F)F)cccc12)C1CCCCN1 (centres undefined) [MEFLOQUINE]
IC50 (Plasmodium falciparum [1]): 44 nM | IC50 (Plasmodium falciparum [6]): 142 nM | IC50 (Plasmodium falciparum [2]): 74 nM | IC50 (Plasmodium falciparum [3]): 147 nM

IC50 (Plasmodium falciparum [1]): 1210 nM | IC50 (Plasmodium falciparum [2]): 2000 nM | IC50 (Plasmodium falciparum [3]): 1200 nM | IC50 (Plasmodium falciparum [5]): 1100 nM
Compound: Cc1cc(/C=C/C#N)cc(C)c1Nc1ccnc(Nc2ccc(C#N)cc2)n1 [RILPIVIRINE]
inhibition at 10 µM (Plasmodium falciparum [4]): 49.8%

IC50 (Plasmodium falciparum [1]): 376 nM | IC50 (Plasmodium falciparum [2]): 509 nM | IC50 (Plasmodium falciparum [3]): 328 nM | IC50 (Plasmodium falciparum [5]): 384 nM
Compound: CNC(=O)c1cc(Oc2ccc(NC(=O)Nc3ccc(Cl)c(C(F)(F)F)c3)cc2)ccn1 [SORAFENIB]
inhibition at 10 µM (Plasmodium falciparum [4]): 87.5%

Compound: C/C(O)=C(\C#N)C(=O)Nc1ccc(C(F)(F)F)cc1 [TERIFLUNOMIDE]
inhibition at 10 µM (Plasmodium falciparum [4]): 4.96%
